# In PMC2753600 (The FEBS journal, 2009):
# Changes are numbered by the printed parent chain. Counter-ions that a name gives are not always drawn. Like-named read-outs stand apart in the source and are kept apart here.
# Key:
# Assay type in all cases: biochemical
# [1] = biological target: T1, purified wild-type human MAO A (Homo sapiens, UniProt P21397); test: Competitive inhibition of purified wild-type human MAO A
# T1 sequence (P21397 1-527): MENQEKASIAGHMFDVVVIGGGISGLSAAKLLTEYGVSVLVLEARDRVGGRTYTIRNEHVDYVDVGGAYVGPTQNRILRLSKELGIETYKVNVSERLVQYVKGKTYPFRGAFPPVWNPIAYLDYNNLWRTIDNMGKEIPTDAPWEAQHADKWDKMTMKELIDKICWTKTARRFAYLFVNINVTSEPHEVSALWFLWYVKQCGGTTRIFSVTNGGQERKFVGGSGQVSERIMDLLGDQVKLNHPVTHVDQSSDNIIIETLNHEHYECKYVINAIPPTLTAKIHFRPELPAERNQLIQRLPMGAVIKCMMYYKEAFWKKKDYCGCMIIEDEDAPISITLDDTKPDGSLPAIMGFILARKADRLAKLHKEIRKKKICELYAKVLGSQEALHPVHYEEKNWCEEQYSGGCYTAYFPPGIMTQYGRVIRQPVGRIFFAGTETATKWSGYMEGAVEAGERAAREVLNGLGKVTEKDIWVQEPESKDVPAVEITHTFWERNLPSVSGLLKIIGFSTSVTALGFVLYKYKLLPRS
# [2] = biological target: T2, membrane-bound MAO A Ser209Glu mutant (Homo sapiens, UniProt P21397, S209E); test: Steady-state kinetics of membrane-bound MAO A Ser209Glu mutant; details: 50 mM potassium phosphate pH 7.5
# T2 sequence (P21397 1-527 S209E): T1 sequence (P21397 1-527) with S209E
# [3] = biological target: T3, membrane-bound wild-type MAO A (Homo sapiens, UniProt P21397); test: Steady-state kinetics of membrane-bound wild-type MAO A; details: 50 mM potassium phosphate pH 7.5
# T3 sequence (P21397 1-527): T1 sequence (P21397 1-527)
# [4] = biological target: T4, purified human MAO A Ser209Glu mutant (Homo sapiens, UniProt P21397, S209E); test: Competitive inhibition of purified human MAO A Ser209Glu mutant; details: for lower affinity for the Ser209Glu mutant than for the wild-type enzyme: purified Ser209Glu vs purified wild-type MAO A
# T4 sequence (P21397 1-527 S209E): T1 sequence (P21397 1-527) with S209E
# [5] = biological target: T5, purified human MAO A Ser209Ala mutant (Homo sapiens, UniProt P21397, S209A); test: Competitive inhibition of purified human MAO A Ser209Ala mutant
# T5 sequence (P21397 1-527 S209A): T1 sequence (P21397 1-527) with S209A
structure (smiles),measurement,setting,value
"c1cc2c(cc1C1CCCCC1)c1c3n2CCNC3CCC1 (stereo not drawn) [Tetrindole Mesylate, tetrindole mesylate]",Ki,"[1]; competitive inhibition constant, purified wild-type human MAO A",5.27 ± 0.24 µM
"NCCc1ccccc1 [Phenylethylamine, β-phenylethylamine]",Km,[2],850 ± 70 µM
same,kcat,[2],1.068 ± 0.0238 s⁻¹
same,Km,[3],470 ± 40 µM
same,kcat,[3],0.8095 ± 0.0177 s⁻¹
"O=C1Nc2ccccc2C1=O [Isatin, isatin]",lower affinity for the Ser209Glu mutant than for the wild-type enzyme,[4],20 fold
Cc1nccc2c1[nH]c1ccccc12 [Harmane],binding to the Ser209Glu mutant compared with wild-type or Ser209Ala MAO A,[4]; purified enzymes,much more weakly
"Cc1ccc2c(c1)c1c3n2CCNC3CCC1 (stereo not drawn) [Pirlindole Mesylate, pirlindole mesylate]",Ki,[4],21.5 ± 1.36 µM
same,Ki,[5],0.88 ± 0.18 µM
same,Ki,[1],0.92 ± 0.04 µM
"C[C@H](N)Cc1ccccc1 [d-Amphetamine, d-amphetamine]",Ki,[4],609 ± 31.6 µM
same,lower affinity for the Ser209Glu mutant than for the wild-type enzyme,[4],160 fold
same,Ki,[5],4.72 ± 0.63 µM
same,Ki,[1],3.69 ± 0.45 µM
"CC(C)(N)Cc1ccccc1 [Phentermine, phentermine]",lower affinity for the Ser209Glu mutant than for the wild-type enzyme,[4],13 fold
